The source of these data is patent publication US20040171613A1, “Therapeutic agent for non-immediate type allergic diseases” (JAPAN TOBACCO INC., priority 2001, published 2004).

Each structure is given as a SMILES string. Read-outs that look alike come from different tables or passages of the source.

In one series the test system is antigen-induced asthma. Description: antigen-induced immediate type asthma, late-type asthma and airway hypersensitivity in guinea pigs. Format: in vivo, guinea pig. The settings on record: oral, compound A 10, 30, 100 mg/kg, positive controls 30 mg/kg. As for the experimental part:
The test compound was further diluted to 20, 6 and 2 mg/mL on needed basis. As positive controls, 6 mg/mL pranlukast hydrate (extracted from Onon™ (Ono Pharmaceutical Co., Ltd.)) and 6 mg/mL prednisolone (Sigma) were similarly prepared.
Sensitization: Using an ultrasonic nebulizer (NE-U12; OMRON), a 6-weeks old male Hartley guinea pig (Kudo, Co., Ltd.) was continuously inhaled with 1% OVA (ovalbumin; Sigma)-containing physiological saline for 10 minutes per day for 8 consecutive days.
Antigen challenge: One week after the last sensitization, 2% OVA was similarly inhaled for 5 minutes. 24 hours before and one hour after the OVA challenge, metyrapone-containing physiological saline (Aldrich, 10 mg/mL) was administered intravenously and 30 minutes before the OVA induction, pyrilamine-containing physiological saline (Sigma, 10 mg/kg) was administered intraperitoneally.
During the 8 days of sensitization, the test compound was given one hour before the sensitization. On the day of the antigen challenge, the test compound was given one hour before the challenge. As solvent controls, the vehicle was similarly administered in accordance with OVA induction and physiological saline induction.
As positive controls, pranlukast hydrate was administered one hour before the challenge, while prednisolone was administered 16 hours and 2 hours before the challenge. The animals were fasted 16 to 18 hours before the oral administration.
Using total respiratory function analysis system (Pulmos-I, M.I.P.S. Company), the pre value was measured. Subsequently, specific airway resistance (hereinafter referred to as sRaw) per 100 breathes was measured one minute and 2, 4, 5, 6, 7 and 8 hours after the OVA challenge, and further once between 22 to 26 hours after the challenge, respectively. The average was used as sRaw at each measured time point. The increment ratio of sRaw was calculated by the following formula.
Increment ratio of sRaw (%)=[(sRaw at each measured time point −sRaw before the challenge)/(sRaw before the challenge)]×100
Twenty-two to 26 hours after the antigen challenge, each of 0.0625, 0.125, 0.25, 0.5, 1 and 2 mg/mL solutions of physiological saline and acetylcholine (hereinafter referred to as ACh) were sequentially inhaled for one minute, until the sRaw was 2-fold or more to the baseline sRaw (sRaw after inhalation of physiological saline). Based on the ACh concentration and the concentration-resistance curve of sRaw, the ACh concentration required for the sRaw to achieve 100% increase from the baseline sRaw, i.e., PC100ACh was determined.

Series [1] deals with DNFB-induced allergic dermatitis. The series can be described thus: murine DNFB-induced allergic dermatitis model. Format: in vivo, mouse. As to conditions: 24 hours after the fifth antigen application; oral dosing. As for the experimental part:
The model is produced by repeating antigen sensitization and induction in mouse to induce contact dermatitis that involves increase of IgE antibody titer, i.e., inflammation similar to atopic dermatitis (J. Allergy Clin. Immunol., 100 (6Pt2), 39-44, December 1997).
Furthermore, by dilution, 0.1 mg/mL and 0.01 mg/mL suspensions were prepared. In addition, as positive controls, 0.5 mg/mL, 0.2 mg/mL and 0.1 mg/mL solutions of prednisolone (Sigma) were similarly prepared.
During the period from the next day of the third antigen application to the next day of the fifth antigen application, 10 mL/kg of the above-described test compound was administered once a day 15 times in total.
The difference of thickness was used as an index of swelling. FIGS. 1 and 2 show the results of the measurement at the fourth and fifth antigen applications, together with the results of the positive controls.
24 hours after the fifth antigen application, the spleen was harvested from the mouse exsanguinated under anesthesia with ether. The wet weight of the spleen was measured.

Series [2] relates to IgE-dependent allergic dermatitis.
Procedure: (§1) Using a triphase dermatitis model that can be induced by antigen in mouse passively sensitizationed with IgE, the actions of CB2 inverse agonist and CB2 agonist were examined.
(§2) *Animal: 8 to 10 weeks-old Female BALB/c mouse (Japan SLC Inc.) was used.
(§3) Preparation of solvent: MC was dissolved in distilled water to prepare an aqueous 0.5% MC solution.
(§4) Anti-DNP IgE (antibody against DNP; Yamasa Corp.) was prepared to 15 μg/mL with physiological saline. 0.2 mL of the resulting solution was given through the caudal vein to the mouse.
(§5) Antigen preparation: 0.15% (w/v) of DNFB (2,4-dinitrofluorobenzene) was prepared in a mixed solution of acetone and olive oil (3:1, v/v) on needed basis.
(§6) Antigen application: 25 μl of the antigen solution was applied on each side of both of the ears 24 hours after the administration of the anti-DNP IgE.
(§7) From the next day of the antigen application to day 8 after the antigen application, 10 mL/kg test compound was orally administered once a day 9 times in total. On the day of antigen application, the test compound was administered one hour before the antigen application and the test compound was administered one hour before the measurement of the thickness of the ear on day 8 after the antigen application.
(§8) Before and 8 days after the antigen application, the thickness of the ear was measured with a dial thickness gauge (Mitutoyo Corp.). The difference between the value measured before the antigen application and at each time point was used as an index of swelling.
(§9) After the measurement of ear swelling, spleen and thymus were harvested to weigh their wet weights.
For series [3], the target named is T1, CB2 (Homo sapiens, UniProt P34972). Further details: host or cells: CHO cells expressing CB2. As to conditions: CB2 expressing CHO cells; non-patent reference 3; cited from earlier work.
Target sequence in this assay (P34972 whole entry, species assumed): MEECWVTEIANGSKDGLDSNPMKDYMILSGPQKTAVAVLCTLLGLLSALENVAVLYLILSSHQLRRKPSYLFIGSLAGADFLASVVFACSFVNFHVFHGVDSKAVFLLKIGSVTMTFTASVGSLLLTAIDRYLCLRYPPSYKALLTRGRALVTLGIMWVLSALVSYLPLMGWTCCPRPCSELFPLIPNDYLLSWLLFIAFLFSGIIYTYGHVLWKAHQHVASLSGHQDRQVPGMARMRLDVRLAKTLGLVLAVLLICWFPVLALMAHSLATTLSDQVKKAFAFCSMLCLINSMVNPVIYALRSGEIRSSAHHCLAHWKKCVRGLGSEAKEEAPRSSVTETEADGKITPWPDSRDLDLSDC
The subject of series [4] is IgE-dependent allergic dermatitis. The settings on record: mouse, in vivo, po.
Procedure: as §1, §2, §3, §4, §5, §6, §7, §8, §9
For series [5], the target named is T1, CB2. Description: cAMP production in forskolin-stimulated hCB2-expressing CHO cells. Format: cell-based. Further details: expressed in transfected cells; host or cells: CHO cells. As to conditions: for remaining activity at 0.1 µM: CHO, Forskolin (5 μM) + compound 0.1 μM, read-out: Amount of cAMP production compared to control (ratio (%)).
Target sequence in this assay (P34972 whole entry): as the sequence (P34972 whole entry, species assumed) above
Another series concerns mouse ear. The series can be described thus: ear swelling induced by application of CB2 agonist or arachidonic acid. Format: in vivo. As for the experimental part: Therefore, 2-arachidonoylglycerol ether (2-AG-E), the stable form of an endogenous ligand candidate 2-arachidonoylglycerol, and a specific CB2 agonist HU-308 were examined whether they directly induce ear swelling and compared to the ear swelling induced by arachidonic acid (AA).
Synthetically produced 2-AG-E and HU-308 were prepared with acetone to 1 or 10% (w/v) and 10% (w/v), respectively, and AA (Sigma) was prepared with acetone to 1.25% (w/v), on needed basis. 10 μL each of these substances was applied on each side of the left ear.

The subject of series [6] is spontaneous scratching reaction. Description: spontaneous scratching reaction of NC mouse. Format: in vivo. As to conditions: NC/Jic mice; oral once a day for 3 weeks; vs solvent control. The text has this: Currently, NC mouse is used as an animal model of atopic dermatitis. No dermatitis or scratching action is observed when the mouse is kept in an environment under the control of atmospheric microorganisms (in SPF environment). However, when the mouse is kept in a conventional environment, scratching action together with the onset of dermatitis can be observed from about week 8 and the symptom progresses into chronic symptom (J. Dermatol. Sci., 25, 20-28, 2001).
Preparation of solvent: MC was dissolved in tap water to prepare an aqueous 0.5% (w/v) MC solution.
As positive controls, betamethasone valerate (Sigma) and tacrolimus hydrate (extracted from Prograf (Fujisawa Pharmaceutical Co., Ltd.)) were similarly prepared to 1 mg/mL. Betamethasone valerate is one of the adrenocorticosteroids that is considered to be effective for the treatment of atopic dermatitis. Tacrolimus hydrate is a therapeutic agent of atopic dermatitis which is known as an immunosuppressor as described above.
The mice (A) were taken away from the cage and the NC/Jic mice were used at the age of 16 weeks.
Breeding conditions: The mice were fed with solid feed CA-1 (CLEA JAPAN INC.) ad libitum and tap water as drinking water ad libitum, and kept at a temperature of 22±2° C. and a humidity of 55±10% under lighting from 8:00 a.m. to 20:00 p.m.
From 10 days before the start of the experiment, the number of scratching behavior with hind legs of the mice was visually counted (for 20 minutes; once daily) over 2 days or 3 days. Among the plural mice counted, mice with 50 or more average scratching movements per day were selected for use.
The behavior of the mice was filmed under unattended environment with a video camera to count the scratching motion with hind legs for one hour. […] This series of scratching motions was counted as one scratching movement, and all such scratching movements were counted irrespective of scratched sites. The measurement was done on the starting day of administration, and one day, 3, 6, 10, 13, 17 and 20 days after the start of administration. […]

Where [7] appears, read: 8 days after antigen application, oral dosing.

As to `C[C@]12C=CC(=O)C=C1CC[C@@H]1[C@@H]2[C@@H](O)C[C@@]2(C)[C@H]1CC[C@]2(O)C(=O)CO` [prednisolone], in the series with antigen-induced asthma (22 to 26 hours after antigen challenge), the “airway hypersensitivity (PC100ACh)” value is recorded as “suppressed”. In the series with antigen-induced asthma, the “immediate type asthma response (sRaw immediately after antigen challenge)” value was “suppressed” and the “late asthmatic response (sRaw over 4 to 8 hours after antigen challenge)” value is “suppressed”. Further, the spleen wet weight entry in series [1] is reported as “decrease of spleen weight”. In series [2] (setting [7]), the “wet weight of the spleen” value is “significant suppression” and the “wet weight of the thymus” value is “significant suppression”.

On to `Cc1ccc(Cn2nc(C(=O)N[C@H]3C4(C)CCC(C4)C3(C)C)cc2-c2ccc(Cl)c(C)c2)cc1` (stereo partly shown) [SR144528], for which the “forskolin-stimulated cAMP production” value at CB2 [3] is given as “elevate the production of cyclic adenosine-phosphate (cAMP)”. Moreover, in series [4], the “wet weight of the spleen” value is on record as “no apparent changes” and the “wet weight of the thymus” value was “no apparent changes”. Moreover, the “ear swelling, very late phase” value in series [2] (mouse, in vivo) is recorded as “significant effect”.

As to `CCCCCOc1c(OC)ccc2cc(C(=O)NCCN3CCOCC3)c(=O)[nH]c12` [B], the remaining activity at 0.1 µM on CB2 [5] stood at 430%.

Turning to `CCCCC/C=C\C/C=C\C/C=C\C/C=C\CCCC(=O)O` [AA, arachidonic acid], the “time after which swelling disappeared” value in the series on mouse ear (topical AA 1.25% (w/v)) worked out at 2 days. For the same compound, the “time of peak ear swelling after the application” value in the series on mouse ear (topical application on ear) is “one”. Moreover, in the series on mouse ear (topical in acetone, 2-AG-E 1 or 10%, HU-308 10%, AA 1.25% (w/v)), the “ear swelling induced by application on the ear” value was “swelling that reached a peak one hour after the application”.

On to `CCCCCOc1c(OC)ccc2c1CC(=O)N(CCCN1CCOCC1)C2=O` [I], for which the remaining activity at 0.1 µM on CB2 [5] stood at 125%.

Consider `CCCCCCC(C)(C)c1cc(OC)c([C@@H]2C=C(CO)[C@@H]3C[C@H]2C3(C)C)c(OC)c1` [HU-308], for which the “wet weight of the spleen” value in series [2] (setting [7]) is recorded as “Significant decrease”. Besides, the “ear swelling, very late phase” value in series [2] (8 days after application, oral once a day, compound A 0.1, 1, 10 mg/kg, SR144528 0.1 mg/kg or higher, HU-308 10 and 50 mg/kg) was “no pharmacological effect was observed”.

Consider `C=CC[C@@H]1/C=C(\C)C[C@H](C)C[C@H](OC)[C@H]2O[C@@](O)(C(=O)C(=O)N3CCCC[C@H]3C(=O)O[C@H](/C(C)=C/[C@@H]3CC[C@@H](O)[C@H](OC)C3)[C@H](C)[C@@H](O)CC1=O)[C@H](C)C[C@@H]2OC` [tacrolimus hydrate], for which the “number of scratching movements” value in series [6] was “suppressed the number of scratching movements”.

With `CCCCC(=O)O[C@]1(C(=O)CO)[C@@H](C)C[C@H]2[C@@H]3CCC4=CC(=O)C=C[C@]4(C)[C@@]3(F)[C@@H](O)C[C@@]21C` [betamethasone valerate], the “number of scratching movements” value in series [6] is recorded as “suppressed the number of scratching movements”.

For the compound `CCCCC/C=C\C/C=C\C/C=C\C/C=C\CCCC(=O)OC(CO)CO` [Compound 2-AG, 2-arachidonoylglycerol], the “forskolin-stimulated cAMP production” value at CB2 [5] (hCB2-expressing CHO cells, statement in definitions) is recorded as “suppress the forskolin-stimulated cAMP production”.

On to `CCCCOc1c(OC)ccc2cc(C(=O)NCCc3ccc(F)cc3)c(=O)[nH]c12` [C], for which the remaining activity at 0.1 µM on CB2 [5] came to 212%.

`CCCCCOc1c(OC)ccc2cc(C(=O)NCCc3ccncc3)c(=O)n(C)c12` [F]: the remaining activity at 0.1 µM at CB2 [5] came to 218%.
